Assay results taken from patent publication US9977309B2, “Electrophoretic fluid” (Merck Patent GmbH, priority 2013, dated 2018).

Assay: Saturation solubility of dyes in decane
Type: physicochemical

In order of falling “Saturation wt % in decane” value:
1. CCCCCCCCN(CCCCCCCC)c1ccc(/N=N/c2ccc([N+](=O)[O-])cc2)c(C)c1 [Dye 8]  10.50 wt %
2. CCCCc1ccc(/N=N/c2ccc(N(CCCC)CCCC)cc2)cc1 [Dye 7]  9.95 wt %
3. CCCCCCCCCCCCCCc1ccc(/N=N/c2c(C)cc(=O)n(CC(CC)CCCC)c2O)cc1 (stereo not drawn) [Dye 6]  3.72 wt %
4. CCCCCCCCCCCCCCc1ccc(/N=N/c2c(C)c(C#N)c(=O)n(CC(CC)CCCC)c2O)cc1 (stereo not drawn) [Dye 5]  1.03 wt %
5. CCCCCCCCN(CCCCCCCC)c1ccc(/N=N/c2snc(C)c2C#N)c(NC(C)=O)c1 [Dye 4]  0.19 wt %
6. CCCCCCCCCCCCCCCCCCN(CCCCCCCCCCCCCCCCCC)c1cc(NC(C)=O)c(/N=N/c2c(C#N)cc([N+](=O)[O-])cc2C#N)cc1OC [Dye 1]  0.003 wt %
